According to article PMC10517971, “An inverse agonist of orphan receptor GPR61 acts by a G protein-competitive allosteric mechanism” (Nature Communications, 2023):
Values joined by “and” are separate entries in the source; they are usually repeats but may differ in a detail not shown here. Equal values may be shown once. Read-outs that look alike come from different tables or passages of the source.

Assays:
Nav1.5 (Peak) = Nav1.5 (Peak) (Homo sapiens, UniProt Q14524); assay: Nav1.5 (peak current) ion channel profiling, Qube384 automated patch clamp (standard and extended protocol); assay type: cell-based
Source text: 105 hERG, Nav1.5 and Cav1.2 Ion Channel Profiling
106 Ionic curr ents wer e evalu ated in the whole-cell con figuration using the Qube384 automated planar
107 patch clamp platform (Sophion Bioscience A/S, Ballerup, Denmark). […]
116 HEPES, 2 Na2ATP, pH 7.2, 305 mOsM. […]
126 Nav1.5 current, from a holding potential of - 80 mV, a 200 ms prepulse to - 120 mV was used to
127 homogenize channel inactivation, followed by a 40 ms step to a test potential of - 15 mV.
128 Membrane potential was further depolarized to +40 mV for 200 ms to completely inactivate the
129 peak Nav1.5 current, followed by a ramp from +40 mV to - 80 mV (-1.2 mV/ms). This voltage
130 pattern was repeated at 0.1 Hz, with peak Nav1.5 defined as the maximum current during the step
131 to - 15 mV. All studies were conducted at 23° C.
132 Compounds were dissol ved and initially diluted in dimethyl sulfoxide (DMSO), with a final
133 dilution in external solution to generate final working concent rations. The final DMSO
134 concentration in all experiments was 0.33% (v/v).
135 For all protocols three vehicle periods each lasting 5 minutes were applied to establish a stable
136 baseline. For the standard protocol this was followed by the addition of increasing concentrations
137 of test compound, with each exposure lasting 5 minutes. For the “extended” protocol following
138 the three- vehi cle additional each well subsequentl y received a single concentration of compound.
139 This application was repeated three times for each well, via a flowthrough addition where the
140 solution was replaced wi th the same compound concentration with each addition. Each exposure
142 Patch clamp data were analyzed using Assay Software 6.4.72 (Sophion Bioscience A/S, Ballerup,
143 Denmark). Current amplitudes were determined by averaging the last 4 currents under each test
144 condition. The percentage inhibition of each compound was determined by taking the ratio of
145 current amplitude measured in the presence of various concentrations of the test compound
146 (ICompound) versus the vehicle control current (IVehicle):
148 A dose-response curve was generat ed and fit to the Hill equation by the Sophion Analyzer software
149 to determine an IC50 value for each compound. The minimum and the slope of the fit were free
150 fitted, with the top being fixed to 100% inhibition.
151 GABA Patch Clamp Assay
152 Compound effects on the human GABAA recepto r (α1β2γ2), stably express ed in human embryonic
153 kidney (HEK) cells, were examined in three modes of action: agonist, antagonist and positive
154 allosteric modulation (PAM) modes. Chloride currents evoked by the activation of the GABAA
155 recepto r wer e reco rded in the whole- cell patch clamp configuration with the automated Qube384®
156 platform (Sophion Bioscience A/S, Baltorpvej, Denmark). […]

human GPR61 R140A = molecular target: T1, human GPR61 R140A (Homo sapiens, UniProt Q9BZJ8, R140A); assay: Functional cAMP assay (HTRF), transiently transfected CHO-K1 cells, GPR61 R140A mutant; assay type: cell-based
T1 construct: expressed in transfected cells; host or cells: CHO-K1, transient (Fugene6)
Source text: The human GPR61 (reference sequence NM_031936.4) cDNA was synthesized and subcloned into pcDNA5/FRT/TO (Thermo Fisher, Pittsburgh, PA). The pcDNA5/FRT/TO/ human GPR61 plasmid was then transfected into the Flp-In™-CHO Cell Line (Thermo Fisher, Pittsburgh, PA) and a doxycycline-inducible clonal cell line was selected (CHO TREx hGPR61 WT). Sequences encoding untagged and HiBit/hemagglutinin (HA)-tagged versions of the wild-type human GPR61 were synthesized and cloned into pcDNA3.1. The HiBit ([…]) and HA ([…]) tags were sequentially included after the N-terminal initiator methionine. Four single amino acid substitutions (N137A, R140A, V288A, N345A) were then introduced in the untagged and tagged human GPR61 constructs using site-specific mutagenesis. The nucleotide sequences of all receptor constructs were confirmed by automated DNA sequencing.
Parental CHO-K1 cells were maintained at 37 °C in a humidified environment (5% CO2) and grown in Dulbecco’s Modified Eagle Medium (DMEM) F-12 media (Gibco, 11320033) supplemented with 10% FBS, 1% Glutamax (Gibco, 35050061) and 100units/ml penicillin and streptomycin (Gibco, 15140122. Cells were dissociated using a cell dissociation solution (Gibco, 13151-014), counted, and resuspended in complete culture media without antibiotics. Cells were then transiently transfected using Fugene6 (Promega) in a 384-well plate format (Corning, 3570). For each well, 7500 cells were transfected with 5 ng of receptor plasmid, 20 ng of carrier DNA (Promega, PAE4881) and 0.075 μl Fugene6 in a final volume of 25 μl. […] Surface and total receptor expression was measured separately by adding 25 μl per well of the extracellular (Promega, PRN2421) and lytic (Promega, PRN3040) assay solutions, respectively. Plates were incubated for 10 min at room temperature on a shaker and luciferase activity was measured using an EnVision plate reader (Perkin Elmer, Chicago, IL). […]
A homogeneous Time-Resolved Fluorescence (HTRF) assay (Perkin Elmer, Dynamic2 kit #) was used to assess receptor basal and inverse agonist activity at human GPR61, GPR62, and GPR101. […]

Human PDE7B = Human PDE7B (Homo sapiens, UniProt Q9NP56); assay: Phosphodiesterase Assay (SPA); assay type: biochemical
Human PDE7B, sequence (Q9NP56 whole entry): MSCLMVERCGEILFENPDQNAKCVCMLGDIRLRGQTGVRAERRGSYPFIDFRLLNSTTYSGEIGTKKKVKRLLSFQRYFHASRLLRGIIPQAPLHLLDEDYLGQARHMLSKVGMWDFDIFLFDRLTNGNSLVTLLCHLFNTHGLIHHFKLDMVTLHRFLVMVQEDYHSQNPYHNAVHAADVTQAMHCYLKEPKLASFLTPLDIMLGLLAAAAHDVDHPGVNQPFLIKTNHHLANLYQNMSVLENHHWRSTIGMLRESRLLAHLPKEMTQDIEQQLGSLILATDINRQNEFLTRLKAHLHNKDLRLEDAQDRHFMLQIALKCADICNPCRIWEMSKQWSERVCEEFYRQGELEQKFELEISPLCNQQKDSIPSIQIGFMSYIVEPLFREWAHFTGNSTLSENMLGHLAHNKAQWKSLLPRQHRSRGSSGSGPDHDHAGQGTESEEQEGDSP

T1 sequence (Q9BZJ8 whole entry R140A): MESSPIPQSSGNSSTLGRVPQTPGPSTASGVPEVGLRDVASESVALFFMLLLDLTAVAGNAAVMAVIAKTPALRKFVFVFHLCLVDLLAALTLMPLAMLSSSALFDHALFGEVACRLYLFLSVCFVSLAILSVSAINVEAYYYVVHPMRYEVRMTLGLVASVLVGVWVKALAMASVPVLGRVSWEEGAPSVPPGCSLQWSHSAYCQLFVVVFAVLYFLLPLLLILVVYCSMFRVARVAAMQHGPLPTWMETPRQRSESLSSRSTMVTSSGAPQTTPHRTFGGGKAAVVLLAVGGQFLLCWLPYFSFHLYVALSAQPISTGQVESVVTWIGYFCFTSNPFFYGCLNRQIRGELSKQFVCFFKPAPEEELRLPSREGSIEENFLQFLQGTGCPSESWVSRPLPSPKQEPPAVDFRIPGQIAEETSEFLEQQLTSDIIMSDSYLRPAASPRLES
Nav1.5 (Peak), sequence (Q14524 whole entry): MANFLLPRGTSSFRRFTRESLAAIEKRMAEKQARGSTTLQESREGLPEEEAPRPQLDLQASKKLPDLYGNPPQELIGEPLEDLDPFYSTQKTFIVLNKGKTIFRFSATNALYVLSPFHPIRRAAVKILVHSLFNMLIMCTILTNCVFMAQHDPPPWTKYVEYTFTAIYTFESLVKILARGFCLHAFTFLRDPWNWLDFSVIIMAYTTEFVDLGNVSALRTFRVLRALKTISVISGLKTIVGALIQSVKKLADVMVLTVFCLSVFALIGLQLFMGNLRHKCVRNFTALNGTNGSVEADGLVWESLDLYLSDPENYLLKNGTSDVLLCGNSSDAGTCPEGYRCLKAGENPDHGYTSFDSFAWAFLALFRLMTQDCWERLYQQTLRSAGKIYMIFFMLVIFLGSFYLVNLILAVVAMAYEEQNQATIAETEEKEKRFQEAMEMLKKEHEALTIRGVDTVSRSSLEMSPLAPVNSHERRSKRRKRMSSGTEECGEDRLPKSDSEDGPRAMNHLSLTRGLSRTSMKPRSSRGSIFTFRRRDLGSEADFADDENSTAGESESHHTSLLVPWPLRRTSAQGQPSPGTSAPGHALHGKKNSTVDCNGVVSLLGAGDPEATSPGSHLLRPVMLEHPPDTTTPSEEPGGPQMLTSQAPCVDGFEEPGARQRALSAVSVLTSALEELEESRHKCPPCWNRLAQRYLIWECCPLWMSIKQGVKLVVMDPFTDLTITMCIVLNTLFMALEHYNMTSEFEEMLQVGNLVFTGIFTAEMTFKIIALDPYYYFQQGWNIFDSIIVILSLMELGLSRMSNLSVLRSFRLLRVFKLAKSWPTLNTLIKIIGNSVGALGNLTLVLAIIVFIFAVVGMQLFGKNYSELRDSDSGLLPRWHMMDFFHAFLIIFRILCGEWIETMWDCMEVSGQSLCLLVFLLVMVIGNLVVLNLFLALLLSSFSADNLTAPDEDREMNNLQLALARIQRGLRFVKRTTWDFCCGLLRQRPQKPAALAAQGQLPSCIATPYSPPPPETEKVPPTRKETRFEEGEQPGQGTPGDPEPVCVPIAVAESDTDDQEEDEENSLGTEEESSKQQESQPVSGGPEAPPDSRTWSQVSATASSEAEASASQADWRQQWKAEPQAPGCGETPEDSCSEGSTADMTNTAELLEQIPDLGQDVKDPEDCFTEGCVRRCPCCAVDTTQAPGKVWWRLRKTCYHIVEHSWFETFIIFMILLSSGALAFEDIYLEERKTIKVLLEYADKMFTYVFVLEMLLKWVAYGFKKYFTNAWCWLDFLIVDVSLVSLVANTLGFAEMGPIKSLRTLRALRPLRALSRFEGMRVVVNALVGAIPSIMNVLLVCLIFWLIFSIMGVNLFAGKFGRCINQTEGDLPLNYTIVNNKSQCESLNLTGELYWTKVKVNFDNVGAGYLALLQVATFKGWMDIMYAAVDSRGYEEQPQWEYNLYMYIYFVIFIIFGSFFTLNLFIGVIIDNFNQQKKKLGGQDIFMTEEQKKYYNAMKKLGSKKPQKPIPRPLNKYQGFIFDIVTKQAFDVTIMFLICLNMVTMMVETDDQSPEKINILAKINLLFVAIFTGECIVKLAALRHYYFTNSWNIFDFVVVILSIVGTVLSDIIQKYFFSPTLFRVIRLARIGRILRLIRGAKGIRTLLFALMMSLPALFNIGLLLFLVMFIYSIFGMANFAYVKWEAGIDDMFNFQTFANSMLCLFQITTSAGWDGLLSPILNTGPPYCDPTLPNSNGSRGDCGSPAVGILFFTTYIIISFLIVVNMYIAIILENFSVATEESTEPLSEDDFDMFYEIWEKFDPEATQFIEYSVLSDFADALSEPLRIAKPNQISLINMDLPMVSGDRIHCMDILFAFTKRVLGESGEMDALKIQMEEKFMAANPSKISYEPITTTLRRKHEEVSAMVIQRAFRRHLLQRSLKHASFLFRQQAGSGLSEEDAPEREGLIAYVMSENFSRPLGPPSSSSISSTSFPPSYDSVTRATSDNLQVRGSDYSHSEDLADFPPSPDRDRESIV

CCOc1cc(C)nc(N(CCOC)S(=O)(=O)c2ccc(NCc3c(F)cncc3F)nc2OC)n1 [Compound 1]
IC50 (Nav1.5 (Peak)): > 100000 nM
IC50 (Nav1.5 (Peak); read-out: Ion Channel Extended Protocol IC50 (nM), Period 1st, Nav1.5 (Peak), extended protocol, 1st period): > 100000 nM
IC50 (Nav1.5 (Peak); read-out: Ion Channel Extended Protocol IC50 (nM), Period 2nd, Nav1.5 (Peak), extended protocol, 2nd period): > 100000 nM
IC50 (Nav1.5 (Peak); read-out: Ion Channel Extended Protocol IC50 (nM), Period 3rd, Nav1.5 (Peak), extended protocol, 3rd period): > 100000 nM
IC50 (human GPR61 R140A; Fig. 3e table, untagged, read-out: GPR61 cAMP IC50 (95% CI), R140A Untagged): 7.88 µM
cAMP response (Figure 3e source data) (human GPR61 R140A; HiBit R140A, concentration -8.5): 4.06 and 2.30 and 2.96 and 2.25 and 3.21
sensitivity of the receptor to inverse agonism in the cAMP assay (human GPR61 R140A; R140A mutant vs wild-type): less sensitive
IC50 (Human PDE7B): 6.27 µM
